The format of series [1] is physicochemical. The text has this:
When the peripheral nervous system stimulant is capsaicin, a preferred vehicle is an aqueous-alcoholic solution, advantageously an aqueous-ethanolic solution, containing from 1% to 50% of ethanol in water, advantageously from 5% to 20%, preferably from 8% to 15% and more preferably 10%.

The test system of series [2] is nasogenial sulci of healthy subjects. Briefly: Example 1: detection threshold test, increasing capsaicin concentrations C1-C4 applied to the nasogenial sulci against vehicle. In kind it is in vivo, human. The settings on record: 13 healthy subjects, 3.3×10^−5% to 1×10^−3% in ethanol 10%, water 90%. As to the method: Capsaicin was tested in the form of aqueous-alcoholic solutions (ethanol 10%, water 90%).
Experimental Design: • Randomized, single-blind study, controlled • 13 healthy subjects of both sexes • 4 capsaicin solutions tested: 3.3×10^−5% (C1), 1×10^−4% (C2), 3.3×10^−4% (C3), 1×10^−3% (C4)
1st step: Simultaneous application to the nasogenial sulci on each side of the face of the vehicle, using impregnated cotton buds, in order to acclimatize the volunteer to the sensations induced by application of the vehicle. Waiting time of 3 minutes.
2nd step: Application of the vehicle to one side and of the capsaicin solution at concentration C1 on the other. After 3 minutes, ask whether the subject has perceived a difference between the 2 sides. If the subject describes an unattractive sensation on the side which has received the capsaicin, stop the test and allocate C1 as the detection threshold. If not, go immediately to step 3.
3rd step: Application of solution C2 to the side which has received the vehicle in […] and of the vehicle to the other side. After 3 minutes, ask whether the subject has perceived a difference between the 2 sides. If the subject describes a particular sensation on the side which has received the capsaicin, stop the test and allocate C2 as the detection threshold. If not, go immediately to step 4. […]

Series [3] has as its system skin of a non-selective population of 150 women. Briefly: Example 7: skin neurosensitivity threshold of 150 women with the kit of Example 3 (capsaicin solutions C1-C5). In kind it is in vivo, human. Here is the method:
This kit allows approximately 50 instances of use and comprises in a box (B) the following elements: • 1. a holder P allowing […] bottles as described in section 2 of this list to be held upright; • 2. 5 bottles F3 of 20 ml containing respectively 15 ml of solutions C1-C5 (3.16×10^−5% (C1), 1×10^−4% (C2), 3.16×10^−4% (C3), 1×10^−3% (C4) and 3.16×10^−3% (C5)) and a bottle F3T containing 15 ml of a 10% aqueous-alcoholic solution T; these bottles are shown in FIG. 2 and correspond to those defined in section 4 of Example 2; • 3. 80 standard cotton buds CT; • 4. a usage note containing the following elements: • a) use instructions for the implementation of the test, reproducing the protocol of Example 1, using the cotton buds and the bottles F3C1-5 and F3T; the bottles must be stored at 4° C. between two instances of use and discarded after one week of use. • b) a calibration system (atlas) allowing interpretation of the results (C1: excessively sensitive skin; C2: highly sensitive skin; C3: moderately sensitive skin; C4: relatively insensitive skin; C5: virtually insensitive skin; C5 not detected: completely insensitive skin).
Use of the Kit of Example 3 to Determine the Skin Neurosensitivity Threshold of 150 Women:
Study performed in a single-blind procedure on a non-selective population of 150 women aged from 18 to 60 years living in Paris or the surrounding region.
It is interesting to note that the sensations reported at the level of the detection threshold (characterized by a sensation detected on the side where the capsaicin was applied, lasting for at least 30 seconds) are highly varied (presence, pins and needles, stinging, hotness, etc.)

Where [4] appears, read: 109 women who detected a concentration, intensity scale 1 to 5.

These results are taken from patent US8100830B2, “Non-therapeutic methods of evaluating skin neurosensitivity, kit and use of a kit for implementing the method” (Societe l'Oreal S.A., priority 2002, dated 2012).

For `COc1cc(CNC(=O)CCCC/C=C/C(C)C)ccc1O` [capsaicin], the “stability over time of aqueous-ethanolic solutions” value in series [1] is listed as “particularly stable over time”. In series [2], the “tolerance of the test (pain) as evaluated by the subjects” value was “absolutely painless for all of the 13 subjects”. In series [3] (74 of the 150 subjects), this compound showed a delay before appearance of the sensation, maximum of 120 s and a delay before appearance of the sensation, minimum of 60 s. The “delay before appearance of the sensation, mean” value in series [3] (74 of the 150 subjects, at the detection threshold) was found to be 79.9 s. Further, in series [3] (setting [4]), the “sensations at level 2 (slight but perceptible) at the detected concentration” value is 95%, the “sensations at level 3 (moderately clearly perceptible) at the detected concentration” value is 5% and the “sensations of level 4 (substantial) or painful at the detected concentration” value was “No sensation of level 4 (“substantial”) or (“painful”) was reported”. Moreover, the “subjects who detected C1, C2 or C3 (sensitive to highly sensitive population)” value in series [3] (150 women, C1 3.16×10^−5%, C2 1×10^−4%, C3 3.16×10^−4%) is reported as 56%. Moreover, the “subjects who detected C4 or C5 or did not detect any concentration (virtually or completely insensitive population)” value in series [3] (150 women, C4 1×10^−3%, C5 3.16×10^−3%) was found to be 44%. Besides, the “women who detected a concentration” value in series [3] (of 150 women, C1-C5) was 109.
